Experimental findings from patent US11267824B2, “Inhibitors of indoleamine 2,3-dioxygenase and/or tryptophan 2,3-dioxygenase” (IDORSIA PHARMACEUTICALS LTD, priority 2017, dated 2022) are described below.

SMILES strings stand for the structures.

Experiment [1] deals with Recombinant human TDO comprising amino acids 19-407 (Homo sapiens (Human), UniProt P48775). The experiment in a line: TDO2 enzymatic assay (TDO inhibitory activity). It counts as biochemical. Conditions: 15 nM enzyme, 200 μM L-tryptophan, pH7, 30 min pre-incubation, NFK quantified by LCMS; mean values if measured multiple times; read-out: hTDO activity (IC50 in nM). The protocol: 2) Testing Compounds for TDO Inhibitory Activity in a TDO2 Enzymatic Assay:
Recombinant human TDO comprising amino acids 19-407 with a N-terminal hexahistidine tag expressed in E. coli and purified to homogeneity is incubated at a final concentration of 15 nM in assay buffer consisting of 75 mM phosphate buffer at pH7 supplemented with 100 μM ascorbic acid, 50 U/ml Catalase, 0.01% BSA, and 0.01% Tween 20 (protocol modified from Seegers et al, JBS 2014). Example compounds are serially diluted in DMSO, further diluted in phosphate buffer, and added to the reaction mixture at final concentrations ranging from 10 μM to 0.5 nM. The final DMSO concentration is 0.6%. Following a pre-incubation of 30 minutes at RT, the reaction is started by the addition of L-tryptophan at a final concentration of 200 μM in assay buffer. After 30 minutes of incubation at RT, 3 μL of the reaction mixture are transferred to a 384 deep well plate containing 25 μL of deionized water. 100 μl of 200 nM L-Tryptophan-(indole-d5) in cold 100% methanol are added followed by a 10 minutes centrifugation at 4,000 rpm at 4° C. An additional 75 μL of deionized water are then added and followed by a 10 minutes centrifugation at 4,000 rpm at 4° C. The product of the reaction N′-Formylkynurenine (NFK) is quantified by LCMS and normalized to the L-Tryptophan-(indole-d5) signal. Samples with 0.6% DMSO (0% effect) and a TDO/IDO inhibitor (100% effect) are used as control samples to set the parameters for the non-linear regression necessary for the determination of the half-maximal inhibitory concentration (IC50) for each compound. For each compound concentration the percentage of activity compared to 0% and 100% effect is calculated as average±STDEV (each concentration measured in duplicate). IC50 values and curves are generated with XLfit software (IDBS) using Dose-Response One Site model 203 (four parameter logistic curve model). When compounds are measured multiple times, mean values are given.

The target in experiment [2] is Recombinant full-length human IDO1 (Homo sapiens (Human), UniProt P14902). The experiment in a line: IDO1 enzymatic assay (IDO inhibitory activity). It counts as biochemical. Conditions: 2 nM enzyme, 5 μM L-tryptophan, pH6.5, 30 min pre-incubation, NFK quantified by LCMS; mean values if measured multiple times; read-out: hIDO activity (IC50 in nM). The protocol:
1) Testing Compounds for IDO Inhibitory Activity in an IDO1 Enzymatic Assay:
Recombinant full-length human IDO1 with a N-terminal hexahistidine tag expressed in E. coli and purified to homogeneity is incubated at a final concentration of 2 nM in assay buffer consisting of 37.5 mM phosphate buffer at pH6.5 supplemented with 10 mM sodium L-ascorbate, 0.45 μM methylene blue, 50 U/ml catalase, 0.01% BSA, and 0.01% Tween 20 (protocol modified from Seegers et al, JBS 2014). Example compounds are serially diluted in DMSO, further diluted in phosphate buffer, and added to the enzyme at final concentrations ranging from 10 μM to 0.5 nM. The final DMSO concentration is 0.6%. Following a pre-incubation of 30 minutes at RT, the reaction is started by the addition of L-tryptophan at a final concentration of 5 μM in assay buffer. After 30 minutes of incubation at RT, 3 μL of the reaction mixture are transferred to a 384 deep well plate containing 25 μL of deionized water. 100 μl of 200 nM L-Tryptophan-(indole-d5) in cold 100% methanol are added followed by a 10 minutes centrifugation at 4,000 rpm at 4° C. An additional 75 μL of deionized water are then added and followed by a 10 minutes centrifugation at 4,000 rpm at 4° C. The product of the reaction N′-Formylkynurenine (NFK) is quantified by LCMS and normalized to the L-Tryptophan-(indole-d5) signal. Samples with 0.6% DMSO (0% effect) and a TDO/IDO inhibitor (100% effect) are used as control samples to set the parameters for the non-linear regression necessary for the determination of the half-maximal inhibitory concentration (IC50) for each compound. For each compound concentration the percentage of activity compared to 0% and 100% effect is calculated as average ±STDEV (each concentration measured in duplicate). IC50 values and curves are generated with XLfit software (IDBS) using Dose-Response One Site model 203 (four parameter logistic curve model). When compounds are measured multiple times, mean values are given.

Chain of Recombinant human TDO comprising amino acids 19-407 (P48775 19-406 limits assumed): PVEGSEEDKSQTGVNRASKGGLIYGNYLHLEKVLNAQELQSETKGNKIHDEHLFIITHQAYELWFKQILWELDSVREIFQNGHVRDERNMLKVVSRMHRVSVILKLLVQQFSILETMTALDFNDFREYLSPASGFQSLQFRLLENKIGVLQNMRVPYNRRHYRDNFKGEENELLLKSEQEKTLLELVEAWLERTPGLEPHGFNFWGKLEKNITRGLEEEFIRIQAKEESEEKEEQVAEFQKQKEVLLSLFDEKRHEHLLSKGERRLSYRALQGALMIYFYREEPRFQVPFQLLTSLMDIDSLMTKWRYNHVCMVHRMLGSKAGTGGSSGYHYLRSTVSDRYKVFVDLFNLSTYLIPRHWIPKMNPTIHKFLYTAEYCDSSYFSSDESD
Chain of Recombinant full-length human IDO1 (P14902 whole entry): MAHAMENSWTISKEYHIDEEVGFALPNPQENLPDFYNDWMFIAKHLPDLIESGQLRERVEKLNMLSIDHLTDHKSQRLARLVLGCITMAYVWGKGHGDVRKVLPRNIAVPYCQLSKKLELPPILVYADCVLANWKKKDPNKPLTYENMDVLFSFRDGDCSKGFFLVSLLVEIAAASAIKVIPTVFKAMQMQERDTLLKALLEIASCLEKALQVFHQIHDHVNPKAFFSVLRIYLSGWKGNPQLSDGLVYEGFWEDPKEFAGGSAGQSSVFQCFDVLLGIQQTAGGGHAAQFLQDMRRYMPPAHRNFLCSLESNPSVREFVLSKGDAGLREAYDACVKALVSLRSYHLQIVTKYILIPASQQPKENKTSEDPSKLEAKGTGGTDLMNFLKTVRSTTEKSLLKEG

Regarding `COc1ccc(-c2sc3cncn3c2C(O)C2CCCCC2)cc1` (racemic) [Example 127, rac-Cyclohexyl-[2-(4-methoxy-phenyl)-imidazo[5,1-b]thiazol-3-yl]-methanol], the 50% inhibitory concentration (IC50) (as a rule, the concentration needed to halve the response being measured) amounted to 1990 nM in experiment [1] and 3090 nM in experiment [2].
For `Cc1ccccc1C(O)c1c(C2CC2)sc2cncn12` (racemic) [Example 148, rac-(2-Cyclopropyl-imidazo[5,1-b]thiazol-3-yl)-o-tolyl-methanol] the same measures were 2530 nM and 1160 nM.
For `Cc1sc2cncn2c1C(O)C1CCCCC1` (racemic) [Example 6, rac-Cyclohexyl-(2-methyl-imidazo[5,1-b]thiazol-3-yl)-methanol] the same measures were 143 nM and 134 nM.
For `OC1CCC(C(O)c2c(C3CC3)sc3cncn23)CC1` (racemic) [Example 151, rac-4-[(2-Cyclopropyl-imidazo[5,1-b]thiazol-3-yl)-hydroxy-methyl]-cyclohexanol], the concentration for half-maximal inhibition (IC50) in experiment [1] amounted to 2640 nM; in experiment [2], 102 nM.
Turning to `OC(CC1CCCCC1)c1c(Br)sc2cncn12` (racemic) [Example 33, rac-1-(2-Bromo-imidazo[5,1-b]thiazol-3-yl)-2-cyclohexyl-ethanol], the concentration for half-maximal inhibition (IC50) in experiment [1] came out at 1410 nM; in experiment [2], 55.7 nM.
On to `CC1(C)CCC(C)(C(O)c2c(C3CC3)sc3cncn23)C1` (stereo not shown) [Example 139, (2-Cyclopropyl-imidazo[5,1-b]thiazol-3-yl)-(1,3,3-trimethyl-cyclopentyl)-methanol], for which the values for the half-maximal inhibitory concentration (IC50) in experiment [1] and in experiment [2] were 151 nM and 18.7 nM, respectively.
Taken in the same sequence, the figures for `CC1CCCC1C(O)c1c(C2CC2)sc2cncn12` (stereo not shown) [Example 48, (2-Cyclopropyl-imidazo[5,1-b]thiazol-3-yl)-(2-methyl-cyclopentyl)-methanol] were 70.6 nM and 8.4 nM.
For `O[C@H](c1c(C(F)(F)F)sc2cncn12)C1CCCCC1` [Example 63a, (S)-Cyclohexyl-(2-trifluoromethyl-imidazo[5,1-b]thiazol-3-yl)-methanol], the IC50 in experiment [1] came to 341 nM; in experiment [2], 20.9 nM.
On to `CC1(C)CC([C@H](O)c2c(C3CC3)sc3cncn23)C1` [Example 36a, (S)-(2-Cyclopropyl-imidazo[5,1-b]thiazol-3-yl)-(3,3-dimethyl-cyclobutyl)-methanol], for which the IC50 was determined as 246 nM in experiment [1] and 5.03 nM in experiment [2].
Taken in the same sequence, the figures for `COC1CCC(CC(O)c2c(C3CC3)sc3cncn23)CC1` (racemic) [Example 131, rac-1-(2-Cyclopropyl-imidazo[5,1-b]thiazol-3-yl)-2-(4-methoxy-cyclohexyl)-ethanol] were 1330 nM and 11.3 nM.
Taken in the same sequence, the figures for `CCc1sc2cncn2c1[C@@H](O)C1CCCCC1` [Example 96a, (S)-Cyclohexyl-(2-ethyl-imidazo[5,1-b]thiazol-3-yl)-methanol] were 20 nM and 5.32 nM.
For `OC(c1c(C2(F)CC2)sc2cncn12)C1CCCCC1` (racemic) [Example 184, rac-Cyclohexyl-[2-(1-fluoro-cyclopropyl)-imidazo[5,1-b]thiazol-3-yl]-methanol] the same measures were 1760 nM and 115 nM.
Consider `OC(c1c(-c2cccc(F)c2)sc2cncn12)C1CCCCC1` (racemic) [Example 181, rac-Cyclohexyl-[2-(3-fluoro-phenyl)-imidazo[5,1-b]thiazol-3-yl]-methanol], for which the IC50 came to 885 nM in experiment [1] and 965 nM in experiment [2].
For `CC(C)Cc1sc2cncn2c1C(O)CC1CCCCC1` (racemic) [Example 99, rac-2-Cyclohexyl-1-(2-isobutyl-imidazo[5,1-b]thiazol-3-yl)-ethanol] the same measures were 1070 nM and 837 nM.
For `Cc1cccc(C(O)c2c(C3CC3)sc3cncn23)c1` (racemic) [Example 52, rac-(2-Cyclopropyl-imidazo[5,1-b]thiazol-3-yl)-m-tolyl-methanol] the same measures were 22.3 nM and 64.8 nM.
Taken in the same sequence, the figures for `CCc1sc2cncn2c1C(O)CC1CCC(C)(C)CC1` (racemic) [Example 178, rac-2-(4,4-Dimethyl-cyclohexyl)-1-(2-ethyl-imidazo[5,1-b]thiazol-3-yl)-ethanol] were 1290 nM and 118 nM.
As to `OC(c1cnn(C2CCCC2)c1)c1c(C2CC2)sc2cncn12` (racemic) [Example 189, rac-(1-Cyclopentyl-1H-pyrazol-4-yl)-(2-cyclopropyl-imidazo[5,1-b]thiazol-3-yl)-methanol], the half-inhibitory concentration (IC50) is over 10200 nM in experiment [1] and 112 nM in experiment [2].
For `Cc1ccc(C(O)c2c(C3CC3)sc3cncn23)cc1` (racemic) [Example 51, rac-(2-Cyclopropyl-imidazo[5,1-b]thiazol-3-yl)-p-tolyl-methanol] the same measures were 1460 nM and 48.4 nM.
For `CC1(c2sc3cncn3c2C(O)C2CCCCC2)CC1` (racemic) [Example 170, rac-Cyclohexyl-[2-(1-methyl-cyclopropyl)-imidazo[5,1-b]thiazol-3-yl]-methanol], the 50% inhibitory concentration (IC50) in experiment [1] was found to be 2260 nM; in experiment [2], 415 nM.
In the case of `CC(C)n1cc(C(O)c2c(C3CC3)sc3cncn23)cn1` (racemic) [Example 188, rac-(2-Cyclopropyl-imidazo[5,1-b]thiazol-3-yl)-(1-isopropyl-1H-pyrazol-4-yl)-methanol], the results for the concentration for half-maximal inhibition (IC50) in experiment [1] and in experiment [2] were over 10200 nM and 111 nM, respectively.
Regarding `OC(c1c[nH]nn1)c1c(C2CC2)sc2cncn12` (racemic) [Example 200, rac-(2-Cyclopropyl-imidazo[5,1-b]thiazol-3-yl)-(1H-[1,2,3]triazol-4-yl)-methanol], the IC50 in experiment [1] is over 10200 nM; in experiment [2] it was 1950 nM.
As for `CCc1sc2cncn2c1C(O)c1ccccc1` (racemic) [Example 176, rac-(2-Ethyl-imidazo[5,1-b]thiazol-3-yl)-phenyl-methanol], the half-inhibitory concentration (IC50) in experiment [1] was found to be 195 nM; in experiment [2], 59.3 nM.
For `OC(CC1CCCCC1)c1c(C2CCC2)sc2cncn12` (racemic) [Example 8, rac-1-(2-Cyclobutylimidazo[5,1-b]thiazol-3-yl)-2-cyclohexylethan-1-ol] the same measures were 256 nM and 122 nM.
Taken in the same sequence, the figures for `CC1CCC(C(O)c2c(C3CC3)sc3cncn23)CC1` (racemic) [Example 44, rac-(2-Cyclopropyl-imidazo[5,1-b]thiazol-3-yl)-(4-methyl-cyclohexyl)-methanol] were 383 nM and 15.8 nM.
Taken in the same sequence, the figures for `OC(c1c(C2CC2)sc2cncn12)C1CCC2CCCCC2C1` (stereo not shown) [Example 90, (2-Cyclopropyl-imidazo[5,1-b]thiazol-3-yl)-(decahydro-naphthalen-2-yl)-methanol] were 1080 nM and 133 nM.
Take `CC1(C)CCC(CC(O)c2c(C(F)(F)F)sc3cncn23)C1` (stereo not shown) [Example 121, 2-(3,3-Dimethyl-cyclopentyl)-1-(2-trifluoromethyl-imidazo[5,1-b]thiazol-3-yl)-ethanol]: the figures for the IC50 in experiment [1] and in experiment [2] were 8490 nM and 313 nM, respectively.
